The values that follow come from patent publication US9708336B2, “Metallo-beta-lactamase inhibitors” (priority 2014, dated 2017).

For one test, the target named is NDM-1 (Klebsiella pneumoniae, UniProt C7C422). Put plainly: biochemical. Format: biochemical. The following applies: read-out: NDM-1 IC50.
In another test the target is IMP-1 (Serratia marcescens, UniProt P52699). Briefly: biochemical. Format: biochemical. Conditions: read-out: IMP-1 IC50.
For another test, the target named is VIM-1 (Pseudomonas aeruginosa (strain ATCC 15692 / DSM 22644 / CIP 104116 / JCM 14847 / LMG 12228 / 1C / PRS 101 / PAO1), UniProt A0A0F7KYQ8). Put plainly: Enzyme activity: determination of IC50, fluorescence assay with CCF2-FA substrate (VIM-1). Type of test: biochemical.
Test [1] concerns Klebsiella pneumoniae expressing VIM-1 (IHMA599644). Put plainly: Antibiotic potentiation activity: synergistic concentration (MITC95) with imipenem, OD600 growth. Format: cell-based. Conditions: for Klebsiella pneumoniae expressing VIM-1 (IHMA 599644) MITC95: concentration giving 95% inhibition of bacterial growth; for Klebsiella pneumoniae MITC95: Klebsiella pneumoniae expressing VIM-1 (IHMA599644), 95% growth inhibition. The method, boiled down: (§1)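 CLB30005 was precultured on Mueller Hinton agar with 8 ug/ml imipenem, the other strains on trypticase soy agar with 5% sheep blood, overnight at 35 °C. Saline suspensions diluted 1:100 in 1.1× CAMHB received compound and 4 μg/ml imipenem, then 22–24 h at 35 °C before absorbance reading.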

Test [2] has as its system Serratia marcescens expressing IMP-1 (CL5741). Described as above. Type of test: cell-based. Conditions: for Serratia marcescens expressing IMP-1 (CL5741) MITC95: concentration giving 95% inhibition of bacterial growth; for Serratia marcescens MITC95: Serratia marcescens expressing IMP-1 (CL5741), 95% growth inhibition. The method, boiled down:
as §1

For test [3], the system named is Escherichia coli expressing NDM-1 (CLB30005). The description is as above. The following applies: for Escherichia coli expressing NDM-1 (CLB 30005) MITC95: concentration giving 95% inhibition of bacterial growth; for Escherichia coli MITC95: Escherichia coli expressing NDM-1 (CLB30005), 95% growth inhibition. Type of test: cell-based. The method, boiled down:
as §1

Setting [4] is: fluorescence assay with CCF2-FA substrate.
The mark [5] stands for this setting: fluorescence assay with CCF2-FA substrate, read-out: VIM-1 IC50.
[6] abbreviates: NDM-1 enzyme, CCF2-FA fluorescence assay.
[7] abbreviates: IMP-1 enzyme, CCF2-FA fluorescence assay.
[8] abbreviates: VIM-1 enzyme, CCF2-FA fluorescence assay, read-out: VIM-1 IC50.

Where two headings read alike, the source gives them in different places.

Sequence of NDM-1 (C7C422 whole entry, looked up, species assumed): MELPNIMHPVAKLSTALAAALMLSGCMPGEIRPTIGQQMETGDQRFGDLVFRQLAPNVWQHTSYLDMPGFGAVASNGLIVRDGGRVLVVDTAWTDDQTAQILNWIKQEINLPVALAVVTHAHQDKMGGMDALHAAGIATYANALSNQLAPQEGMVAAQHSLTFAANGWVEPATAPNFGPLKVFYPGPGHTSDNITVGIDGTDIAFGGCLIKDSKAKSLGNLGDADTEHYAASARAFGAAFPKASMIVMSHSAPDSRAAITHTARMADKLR
Sequence of IMP-1 (P52699 whole entry, looked up): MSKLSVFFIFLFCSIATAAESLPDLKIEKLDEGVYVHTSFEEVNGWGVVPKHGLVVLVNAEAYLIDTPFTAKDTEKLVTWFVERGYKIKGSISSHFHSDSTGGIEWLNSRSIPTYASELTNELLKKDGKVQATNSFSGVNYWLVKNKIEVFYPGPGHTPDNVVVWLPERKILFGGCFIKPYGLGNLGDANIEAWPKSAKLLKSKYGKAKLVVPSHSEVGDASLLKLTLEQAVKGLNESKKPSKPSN

For the molecule `NS(=O)(=O)c1nccc(-c2cnc3[nH]ccc3c2)c1-c1nn[nH]n1` [Example 212, 4-(1H-pyrrolo[2,3-b]pyridin-5-yl)-3-(2H-tetrazol-5-yl)pyridine-2-sulfonamide], the IC50 (usually the concentration that gives 50% inhibition) is 7.91 nM on NDM-1 (setting [4]), 415 nM at IMP-1 (setting [4]) and 13.1 nM at VIM-1 (setting [5]). In addition, in test [1], the “Klebsiella pneumoniae expressing VIM-1 (IHMA 599644) MITC95” value worked out at 3.125 µM. For the same molecule, the “Serratia marcescens expressing IMP-1 (CL5741) MITC95” value in test [2] was found to be 18.75 µM. Moreover, in test [3], the “Escherichia coli expressing NDM-1 (CLB 30005) MITC95” value stood at 0.3906 µM.
`NS(=O)(=O)c1nccc(-c2ccc3cccnc3c2)c1-c1nn[nH]n1` [Example 213, 4-(quinolin-7-yl)-3-(2H-tetrazol-5-yl)pyridine-2-sulfonamide]: the IC50 at NDM-1 (setting [4]) is 51 nM; at IMP-1 (setting [4]), 564 nM; at VIM-1 (setting [5]), 62.4 nM. For the same molecule, in test [1], the “Klebsiella pneumoniae expressing VIM-1 (IHMA 599644) MITC95” value came out at 100 µM. Further, the “Serratia marcescens expressing IMP-1 (CL5741) MITC95” value in test [2] is 37.5 µM. The “Escherichia coli expressing NDM-1 (CLB 30005) MITC95” value in test [3] worked out at 1.042 µM.
In the case of `NS(=O)(=O)c1nccc(N2CCC3(CCNCC3)CC2)c1-c1nn[nH]n1` [Example 245, 4-(3,9-diazaspiro[5.5]undecan-3-yl)-3-(2H-tetrazol-5-yl)pyridine-2-sulfonamide], the IC50 was 266 nM at NDM-1 (setting [6]), 9780 nM on IMP-1 (setting [7]) and 460 nM on VIM-1 (setting [8]). In addition, in test [1], the “Klebsiella pneumoniae MITC95” value was found to be 12.5 µM. The “Serratia marcescens MITC95” value in test [2] was found to be 50 µM. Also, in test [3], the “Escherichia coli MITC95” value worked out at 0.3906 µM.
Take `NS(=O)(=O)c1cccc(-c2ccn3cncc3c2)c1-c1nn[nH]n1` [Example 247, 3-(Imidazo[1,5-a]pyridin-7-yl)-2-(2H-tetrazol-5-yl)benzenesulfonamide]: the IC50 at NDM-1 (setting [6]) was 14.6 nM; on IMP-1 (setting [7]) it was 479 nM; at VIM-1 (setting [8]), 116 nM. Moreover, the “Klebsiella pneumoniae MITC95” value in test [1] was found to be 37.5 µM. Moreover, the “Serratia marcescens MITC95” value in test [2] was determined as 25 µM. For the same molecule, the “Escherichia coli MITC95” value in test [3] is 0.3906 µM.
For the molecule `NCc1nc(-c2ccc(-c3cccc(S(N)(=O)=O)c3-c3nn[nH]n3)cc2)no1` [Example 249, 4′-(5-(Aminomethyl)-1,2,4-oxadiazol-3-yl)-2-(2H-tetrazol-5-yl)-[1,1′-biphenyl]-3-sulfonamide], the 50% inhibitory concentration (IC50) was found to be 7.55 nM on NDM-1 (setting [6]), 104 nM at IMP-1 (setting [7]) and 87 nM at VIM-1 (setting [8]). Also, the “Klebsiella pneumoniae MITC95” value in test [1] came to 50 µM. In test [2], the “Serratia marcescens MITC95” value was 3.125 µM. The “Escherichia coli MITC95” value in test [3] came out at 0.7813 µM.
As for `NS(=O)(=O)c1cccc(-c2ccc(-c3noc(C4CCNC4)n3)cc2)c1-c1nn[nH]n1` (stereo not drawn) [Example 250, 4′-(5-(pyrrolidin-3-yl)-1,2,4-oxadiazol-3-yl)-2-(2H-tetrazol-5-yl)-[1,1′-biphenyl]-3-sulfonamide], the results for the IC50 at NDM-1 (setting [6]), at IMP-1 (setting [7]) and on VIM-1 (setting [8]) were 18 nM, 109 nM and 195 nM, respectively. For the same molecule, the “Klebsiella pneumoniae MITC95” value in test [1] is 100 µM. Besides, the “Serratia marcescens MITC95” value in test [2] is 4.688 µM. The “Escherichia coli MITC95” value in test [3] was 0.7813 µM.
`C[C@H](O)c1nc(-c2ccc(-c3cccc(S(N)(=O)=O)c3-c3nn[nH]n3)cc2)no1` [Example 251, (S)-4′-(5-(1-hydroxyethyl)-1,2,4-oxadiazol-3-yl)-2-(2H-tetrazol-5-yl)-[1,1′-biphenyl]-3-sulfonamide]: the IC50 was 5.85 nM on NDM-1 (setting [6]); 42.5 nM on IMP-1 (setting [7]); 71.6 nM against VIM-1 (VIM-1 IC50, VIM-1 enzyme, CCF2-FA fluorescence assay). Further, the “Klebsiella pneumoniae MITC95” value in test [1] was 200 µM. In test [2], the “Serratia marcescens MITC95” value is 6.25 µM. Besides, in test [3], the “Escherichia coli MITC95” value was determined as 0.7813 µM.
For the molecule `COc1ccc(S(N)(=O)=O)c(-c2nn[nH]n2)c1` [Example 253, 4-Methoxy-2-(2H-tetrazol-5-yl)benzenesulfonamide], the IC50 is 440 nM at NDM-1 (setting [6]), 46300 nM on IMP-1 (setting [7]) and 170000 nM at VIM-1 (setting [8]). Moreover, the “Klebsiella pneumoniae MITC95” value in test [1] is more than 200 µM. Also, in test [2], the “Serratia marcescens MITC95” value was more than 200 µM. Also, the “Escherichia coli MITC95” value in test [3] stood at 3.125 µM.
Take `NS(=O)(=O)c1cccc(C(F)(F)F)c1-c1nnn[nH]1` [Example 256, 2-(1H-Tetrazol-5-yl)-3-(trifluoromethyl)benzenesulfonamide]: the IC50 on NDM-1 (setting [6]) came out at 230 nM; on IMP-1 (setting [7]) it was 6260 nM; on VIM-1 (setting [8]), 8440 nM. The “Klebsiella pneumoniae MITC95” value in test [1] was more than 200 µM. The “Serratia marcescens MITC95” value in test [2] is 100 µM. The “Escherichia coli MITC95” value in test [3] worked out at 0.7813 µM.
Consider `COc1cccc(S(N)(=O)=O)c1-c1nnn[nH]1` [Example 257, 3-Methoxy-2-(1H-tetrazol-5-yl)benzenesulfonamide], for which the IC50 on NDM-1 (setting [6]) came to 547 nM; on IMP-1 (setting [7]), 8280 nM; on VIM-1 (setting [8]) it was 9230 nM. Besides, in test [1], the “Klebsiella pneumoniae MITC95” value is more than 200 µM. The “Serratia marcescens MITC95” value in test [2] stood at 150 µM. Besides, the “Escherichia coli MITC95” value in test [3] was 1.563 µM.
`NS(=O)(=O)c1cccc(-c2ccc(CO)nc2)c1-c1nnn[nH]1` [Example 258, 3-(6-(Hydroxymethyl)pyridin-3-yl)-2-(1H-tetrazol-5-yl)benzenesulfonamide]: the IC50 came out at 12.9 nM at NDM-1 (setting [6]), 888 nM on IMP-1 (setting [7]) and 147 nM on VIM-1 (setting [8]). In addition, the “Klebsiella pneumoniae MITC95” value in test [1] was 15.63 µM. Also, the “Serratia marcescens MITC95” value in test [2] turned out to be 37.5 µM. In addition, the “Escherichia coli MITC95” value in test [3] was determined as 1.302 µM.
For the molecule `NS(=O)(=O)c1c(Br)ccc(-c2ccc(C3CCNCC3)cc2)c1-c1nnn[nH]1` [Example 259, 4-Bromo-4′-(piperidin-4-yl)-2-(1H-tetrazol-5-yl)-[1,1′-biphenyl]-3-sulfonamide], the results for the IC50 at NDM-1 (setting [6]), at IMP-1 (setting [7]) and on VIM-1 (setting [8]) were 11 nM, 10.1 nM and 3.1 nM, respectively. Further, the “Klebsiella pneumoniae MITC95” value in test [1] came to 3.125 µM. Further, the “Serratia marcescens MITC95” value in test [2] came to 1 µM. Besides, in test [3], the “Escherichia coli MITC95” value was found to be 1.584 µM.
For `CCCc1ccc(-c2ccc(C3CCNCC3)cc2)c(-c2nnn[nH]2)c1S(N)(=O)=O` [Example 260, 4′-(Piperidin-4-yl)-4-propyl-2-(1H-tetrazol-5-yl)-[1,1′-biphenyl]-3-sulfonamide], the figures for the half-inhibitory concentration (IC50) at NDM-1 (setting [6]), on IMP-1 (setting [7]) and at VIM-1 (setting [8]) were 11.2 nM, 6.72 nM and 0.797 nM, respectively. The “Klebsiella pneumoniae MITC95” value in test [1] was determined as 6.25 µM. In test [2], the “Serratia marcescens MITC95” value stood at 1.563 µM. Moreover, the “Escherichia coli MITC95” value in test [3] came to 6.25 µM.
Turning to `NS(=O)(=O)c1nncc(-c2ccc(Br)cc2)c1-c1nn[nH]n1` [Example 277, 5-(4-Bromophenyl)-4-(2H-tetrazol-5-yl)pyridazine-3-sulfonamide], the IC50 at NDM-1 (setting [6]) turned out to be 296 nM; on IMP-1 (setting [7]), 5270 nM; on VIM-1 (setting [8]), 1230 nM. For the same molecule, in test [1], the “Klebsiella pneumoniae MITC95” value was more than 200 µM. In addition, the “Serratia marcescens MITC95” value in test [2] was 125 µM. The “Escherichia coli MITC95” value in test [3] was determined as 12.5 µM.
In the case of `CS(=O)(=O)c1nc2cc(Cl)c(-c3cccc(S(N)(=O)=O)c3-c3nn[nH]n3)cc2[nH]1` [Example 278, 3-(5-chloro-2-(methylsulfonyl)-1H-benzo[d]imidazol-6-yl)-2-(2H-tetrazol-5-yl)benzenesulfonamide], the IC50 on NDM-1 (setting [6]) was found to be 8.5 nM; on IMP-1 (setting [7]), 536 nM; at VIM-1 (setting [8]), 79.1 nM. The “Klebsiella pneumoniae MITC95” value in test [1] came out at 100 µM. For the same molecule, in test [2], the “Serratia marcescens MITC95” value was determined as 37.5 µM. The “Escherichia coli MITC95” value in test [3] was 3.125 µM.
